SMILES strings stand for the structures. pIC50: −log10 of the molar value. Counter-ions that a name gives are not always drawn.

T1 sequence (O14920 whole entry): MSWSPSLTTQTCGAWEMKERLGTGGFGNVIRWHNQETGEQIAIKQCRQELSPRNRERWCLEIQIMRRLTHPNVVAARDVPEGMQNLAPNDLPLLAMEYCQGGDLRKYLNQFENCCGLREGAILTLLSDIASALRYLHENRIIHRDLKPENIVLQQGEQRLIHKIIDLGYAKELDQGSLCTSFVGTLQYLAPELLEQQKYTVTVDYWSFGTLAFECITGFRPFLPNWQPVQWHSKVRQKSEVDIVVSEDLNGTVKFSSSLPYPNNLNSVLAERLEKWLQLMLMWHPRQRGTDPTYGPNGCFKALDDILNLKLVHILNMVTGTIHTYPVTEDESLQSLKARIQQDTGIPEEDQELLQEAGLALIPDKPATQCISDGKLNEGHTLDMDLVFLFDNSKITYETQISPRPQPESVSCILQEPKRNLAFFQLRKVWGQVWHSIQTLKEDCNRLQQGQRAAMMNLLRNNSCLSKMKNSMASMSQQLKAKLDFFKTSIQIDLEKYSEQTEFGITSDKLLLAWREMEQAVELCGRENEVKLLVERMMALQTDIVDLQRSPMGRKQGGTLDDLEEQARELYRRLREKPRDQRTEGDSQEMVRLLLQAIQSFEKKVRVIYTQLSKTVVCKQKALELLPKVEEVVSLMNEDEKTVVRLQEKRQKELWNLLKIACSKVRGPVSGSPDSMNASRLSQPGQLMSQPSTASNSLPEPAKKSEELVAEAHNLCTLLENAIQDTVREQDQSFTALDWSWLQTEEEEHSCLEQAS
T1 sequence (O15111 whole entry): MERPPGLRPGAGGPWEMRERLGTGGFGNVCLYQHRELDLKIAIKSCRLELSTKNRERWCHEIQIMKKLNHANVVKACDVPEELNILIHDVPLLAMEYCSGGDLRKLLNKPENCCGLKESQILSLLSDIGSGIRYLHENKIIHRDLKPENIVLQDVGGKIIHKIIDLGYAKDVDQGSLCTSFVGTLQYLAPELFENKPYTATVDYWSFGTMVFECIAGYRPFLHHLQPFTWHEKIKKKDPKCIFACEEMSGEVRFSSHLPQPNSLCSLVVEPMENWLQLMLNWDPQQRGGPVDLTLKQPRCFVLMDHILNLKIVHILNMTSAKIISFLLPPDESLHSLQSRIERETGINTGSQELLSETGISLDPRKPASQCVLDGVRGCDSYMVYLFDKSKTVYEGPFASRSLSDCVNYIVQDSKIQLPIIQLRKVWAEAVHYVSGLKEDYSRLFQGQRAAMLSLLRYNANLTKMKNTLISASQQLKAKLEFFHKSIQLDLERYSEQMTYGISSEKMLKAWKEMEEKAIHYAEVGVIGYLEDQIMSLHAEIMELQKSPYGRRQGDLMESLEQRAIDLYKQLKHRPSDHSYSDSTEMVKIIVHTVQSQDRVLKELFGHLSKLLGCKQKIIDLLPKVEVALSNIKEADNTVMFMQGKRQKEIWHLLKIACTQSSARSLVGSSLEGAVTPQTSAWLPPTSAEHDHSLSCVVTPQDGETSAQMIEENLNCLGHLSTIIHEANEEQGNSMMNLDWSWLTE
T1 sequence (Q9Y6K9 whole entry partner): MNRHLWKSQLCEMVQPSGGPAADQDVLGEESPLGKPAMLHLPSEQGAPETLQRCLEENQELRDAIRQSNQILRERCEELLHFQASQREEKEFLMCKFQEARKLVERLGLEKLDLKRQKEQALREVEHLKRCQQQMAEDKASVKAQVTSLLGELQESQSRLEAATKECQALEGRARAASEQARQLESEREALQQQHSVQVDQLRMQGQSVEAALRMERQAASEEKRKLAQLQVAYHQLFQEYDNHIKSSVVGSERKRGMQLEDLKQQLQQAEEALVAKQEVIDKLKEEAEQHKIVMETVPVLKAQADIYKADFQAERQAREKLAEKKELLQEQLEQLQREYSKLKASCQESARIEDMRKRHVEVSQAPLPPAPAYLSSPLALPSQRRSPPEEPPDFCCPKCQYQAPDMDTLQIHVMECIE

The test system of the first assay is cardiac allograft (BALB/c->C57BL/6 or B6/129). Nature of the assay: Mouse heterotopic cardiac transplant model. It counts as in vivo. As to conditions: oral, 25 mg/kg/day for 14 days, starting at transplantation; mean±SD. The text has this: Mouse Heterotopic Cardiac Transplant Model
In the mouse heterotopic cardiac transplant model across full histocompatibility barriers (BALB/c->C57BL/6 or B6/129), graft survival is typically limited to 7.3±0.4 days (mean±SD, n0 allografts) (see for example in Hancock W W, Sayegh M H, Zheng X G, Peach R, Linsley P S, Turka L A. Costimulatory function and expression of CD40-ligand, CD80 and CD86 or in vascularized murine cardiac allograft rejection. Proc Natl Acad Sci (USA) 93, 1996, 13967-13972; and Hancock W W, Buelow R, Sayegh M H, Turka L A. Antibody-induced transplant arteriosclerosis is prevented by graft expression of anti-oxidant and anti-apoptotic genes. Nature Med 4, 1998, 1392-1396).
The effects of oral administration of the compounds according to examples 49 and 60 were tested using 25 mg/kg/day for 14 days, starting at transplantation in said animal model. Whereas grafts in animals receiving the carrier, methyl-cellulose, rejected by 7 days (6.7±0.8), grafts in compound 49-treated mice survived around 15 days (15.3±0.6), and grafts in those given compound 60 survived for 20 days (20±1). Current immunosuppressive therapies used in transplantation have limited efficacy and/or considerable toxicity.
`O=C(Nc1cc(Cl)cc2c1[nH]c1cnccc12)c1ccc(F)cc1` [Example 49, trifluoroacetate] gave a graft survival of 15.3 ± 0.6 days.

Another assay addresses T1, IκBα-kinase complex (Homo sapiens, UniProt O14920+O15111).
T1 construct: endogenous in cells; host or cells: HeLa S3 cell extract, S100 fraction; ammonium sulfate precipitation and Superose-6 size exclusion
The assay can be described thus: IkB-Kinase ELISA.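 Further: substrate phosphopeptide captured on Protein-A plates, detected with Streptavidin-HRP and TMB absorbance at 450 nm, activity read from a synthetic phosphopeptide standard curve.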 As to conditions: IkB-kinase, unit inferred; read-out: IC50. It counts as biochemical. In general terms: In an ELISA, binding on a coated surface is turned into a signal by an enzyme label.
Turning to `Nc1ccc(C(=O)Nc2cc(Cl)cc3c2[nH]c2cnccc23)cn1` [Example 121], the negative logarithm of the IC50 (pIC50) (as a rule, −log10 of the IC50, conventionally taken in molar units) is 5.77.

The same assay, now with this note: activated IκBα kinase complex from HeLa S3 cell extracts; ELISA; read-out: IkB-kinase IC50.
As to `O=C(c1cccnc1)N1CCn2c3cnccc3c3cc(Cl)cc1c32` [Example 69], the negative logarithm of the IC50 (pIC50) is 5.52.
For `CC(=O)N(C)c1cc(Cl)cc2c1[nH]c1cnccc12` [Example 48, trifluoroacetate], the pIC50 is 5.40.
As for `Cc1cc(C(=O)Nc2cc(Cl)cc3c2[nH]c2cnccc23)no1` [Example 80], the negative-log IC50 (pIC50) was 6.51.
For `COc1ccc(C(=O)Nc2cc(Cl)cc3c2[nH]c2cnccc23)cc1` [Example 53, 7-chloro-9-(4-methoxybenzoxylamino)-β-carboline trifluoroacetate], the pIC50 is 5.85.
On to `Cc1nccc2c1[nH]c1cc(OCc3ccccc3)ccc12` [Example 26], for which the pIC50 is 4.92.
On the same count and under the same terms, under `O=C1CC[C@H](C(=O)Nc2cc(Cl)cc3c2[nH]c2cnccc23)O1` [Example 111] stands 6.27; under `O=C(Nc1cc(Cl)cc2c1[nH]c1cnccc12)c1cnccn1` [Example 88], 6.55.
In the case of `CC(C)Oc1c(Cl)cc2c([nH]c3cnccc32)c1Cl` [Example 84], the pIC50 was 7.00.
For `CC(C)(C)C(=O)Nc1cc(Cl)cc2c1[nH]c1cnccc12` [Example 57], the pIC50 is 5.37.
As to `Cc1cc(C(=O)Nc2cc(Cl)cc3c2[nH]c2cnccc23)n(C)n1` [Example 106], the pIC50 is 6.22.
In the case of `O=S(=O)(Nc1cc(Cl)cc2c1[nH]c1cnccc12)c1ccc(F)cc1` [Example 112], the pIC50 is 6.03.
For the compound `COc1c(Cl)cc2c([nH]c3cnccc32)c1NC(=O)c1ccc(Cl)nc1` [Example 118], the pIC50 is 6.92.
Take `Fc1ccc2c(c1)[nH]c1cnccc12` [Example 31]: the negative logarithm of the IC50 (pIC50) was 5.48.
For `N#Cc1cccc(C(=O)Nc2cc(Cl)cc3c2[nH]c2cnccc23)c1` [Example 72], the negative-log IC50 (pIC50) is 6.24.
The same measure, in the same setting: under `Clc1cc2c([nH]c3cnccc32)c(Cl)c1OCC1CC1` [Example 65] stands 7.00; under `O=C(Nc1c(O)c(Cl)cc2c1[nH]c1cnccc12)c1cccnc1` [Example 115], 5.34; under `O=C(Cc1ccccn1)Nc1cc(Cl)cc2c1[nH]c1cnccc12` [Example 108], 5.68.
In the case of `O=C(N1CCOCC1)n1c2ccc(Br)cc2c2ccncc21` [Example 17], the pIC50 was 5.30.
Still for that read-out and setting: under `O=[N+]([O-])c1cc(Cl)cc2c1[nH]c1cnccc12` [Example 14] stands 5.40.
With `O=C(Nc1cc(Cl)cc2c1[nH]c1cnccc12)c1ccc(F)cc1` [Example 49, trifluoroacetate], the pIC50 was 6.66.
As for `O=C(Nc1cc(Cl)cc2c1[nH]c1cnccc12)c1ccc2c(c1)OCO2` [Example 89], the pIC50 is 6.24.
Take `CCOC(=O)Cn1c2ccc(Cl)cc2c2ccncc21` [Example 18]: the pIC50 was 4.64.
As to `O=C(Cc1cccs1)Nc1cc(Cl)cc2c1[nH]c1cnccc12` [Example 86], the pIC50 was 6.15.
For `O=C(Nc1cc(Cl)cc2c1[nH]c1cnccc12)c1cccnc1` [Example 60, N-(6-Chloro-9H-β-carbolin-8-yl)-nicotinamide], the negative logarithm of the IC50 (pIC50) was 7.28.
On to `COCOc1c(Cl)cc2c([nH]c3cnccc32)c1Cl` [Example 70], for which the pIC50 was 6.44.
Consider `CCOc1c(Cl)cc2c([nH]c3cnccc32)c1Cl` [Example 39], for which the pIC50 was 7.00.
Consider `COc1c([N+](=O)[O-])cc2c([nH]c3cnccc32)c1Cl` [Example 94], for which the pIC50 is 6.19.
Take `COCC(=O)Nc1cc(Cl)cc2c1[nH]c1cnccc12` [Example 51, trifluoroacetate]: the pIC50 was 6.22.
`COc1ccc2c([nH]c3cnccc32)c1Cl` [Example 36, trifluoroacetate]: the pIC50 was 5.85.
`Brc1ccc2[nH]c3cnccc3c2c1` [Example 1]: the pIC50 was 6.40.
On the same count and under the same terms, under `COc1cc2[nH]c3c(C)nccc3c2cc1Br` [Example 32] stands 5.34; under `O=C(Nc1cc(Cl)cc2c1[nH]c1cnccc12)c1ccccc1F` [Example 61], 6.03; under `Cc1oc(C(F)(F)F)cc1C(=O)Nc1cc(Cl)cc2c1[nH]c1cnccc12` [Example 77], 5.36.
Regarding `COc1c(N)cc2c([nH]c3cnccc32)c1Cl` [Example 95], the pIC50 is 6.00.
`OCCn1c2ccc(Cl)cc2c2ccncc21` [Example 19]: the pIC50 was 5.52.
As to `O=C(Nc1cc(Cl)cc2c1[nH]c1cnccc12)c1ccc(Cl)nc1` [Example 83, 6-Chloro-N-(6-chloro-9H-β-carbolin-8-yl)-nicotinamide], the pIC50 was 7.22.
On to `O=C(Nc1cc(Cl)cc2c1[nH]c1cnccc12)c1ccco1` [Example 75], for which the pIC50 is 6.54.
As for `CS(=O)(=O)n1c2ccc(Br)cc2c2ccncc21` [Example 10], the pIC50 is 6.40.
Take `COc1c(Cl)cc2c([nH]c3cnccc32)c1NC(=O)c1ccno1` [Example 119]: the pIC50 is 6.22.
As to `Clc1cc2c([nH]c3cnccc32)c(Cl)c1OCC1CC1` [Example 64], the pIC50 is 6.96.
Consider `O=C(Nc1cc(Cl)cc2c1[nH]c1cnccc12)c1cccc(=O)[nH]1` [Example 109], for which the pIC50 was 5.68.
Turning to `CCOc1ccc2c(c1)[nH]c1c(C)nccc12` [Example 27], the negative logarithm of the IC50 (pIC50) is 5.35.
For `Fc1cc2[nH]c3cnccc3c2cc1Cl` [Example 34], the pIC50 was 6.00.
For the compound `Oc1c(Cl)cc2c([nH]c3cnccc32)c1Cl` [Example 38], the pIC50 is 4.96.
Take `CC(=O)n1c2ccc(Br)cc2c2ccncc21` [Example 2]: the pIC50 is 6.40.
For the compound `CNc1cc(Cl)cc2c1[nH]c1cnccc12` [Example 43, trifluoroacetate], the pIC50 is 6.00.
As to `O=C1CC[C@@H](C(=O)Nc2cc(Cl)cc3c2[nH]c2cnccc23)N1` [Example 103], the negative logarithm of the IC50 (pIC50) is 6.51.
Regarding `CC(C)(C)c1cc(C(=O)Nc2cc(Cl)cc3c2[nH]c2cnccc23)n(Cc2ccccc2)n1` [Example 107], the pIC50 was 6.40.
As to `O=C(Nc1cc(Cl)cc2c1[nH]c1cnccc12)c1ccncc1` [Example 56], the pIC50 was 6.57.
`O=C(Nc1cc(Cl)cc2c1[nH]c1cnccc12)c1cccnc1O` [Example 104]: the pIC50 was 6.00.
On to `O=C(Nc1cc(Cl)cc2c1[nH]c1cnccc12)c1ccccc1F` [Example 62], for which the pIC50 was 6.42.
For the compound `CN(C)CC(=O)Nc1cc(Cl)cc2c1[nH]c1cnccc12` [Example 98], the negative logarithm of the IC50 (pIC50) is 6.05.
Take `CC(C)COc1c(Cl)cc2c([nH]c3cnccc32)c1Cl` [Example 85]: the pIC50 is 6.70.
With `O=C(Nc1cc(Cl)cc2c1[nH]c1cnccc12)c1ccc(F)c(F)c1` [Example 82, N-(6-Chloro-9H-β-carbolin-8-yl)-3,4-difluoro-benzamide], the pIC50 is 6.82.
In the case of `COc1c(Cl)cc2c([nH]c3cnccc32)c1Cl` [Example 37, trifluoroacetate], the pIC50 was 6.82.
In the case of `CCN(CC)CCOc1c(Cl)cc2c([nH]c3cnccc32)c1Cl` [Example 93], the negative logarithm of the IC50 (pIC50) was 5.89.
As for `Cn1nc(C(C)(C)C)cc1C(=O)Nc1cc(Cl)cc2c1[nH]c1cnccc12` [Example 78], the negative-log IC50 (pIC50) was 5.64.
For `O=C(Nc1cc(Cl)cc2c1[nH]c1cnccc12)c1ccccn1` [Example 87], the pIC50 is 6.12.
Take `O=C(COCc1ccccc1)Nc1cc(Cl)cc2c1[nH]c1cnccc12` [Example 90]: the negative logarithm of the IC50 (pIC50) was 5.85.
`O=C(Nc1cc(Cl)cc2c1[nH]c1cnccc12)c1ccc(C(F)(F)F)cc1` [Example 74]: the pIC50 was 5.42.
Take `Fc1cc2[nH]c3cnccc3c2cc1Cl` [Example 40, trifluoroacetate]: the pIC50 is 5.70.
As for `CC(=O)Oc1c(Cl)cc2c([nH]c3cnccc32)c1Cl` [Example 101], the pIC50 is 5.74.

These data come from patent US7348336B2 (Sanofi-Aventis Deutschland GmbH, priority 2000, dated 2008).
